The subject of data set [1] is PC12 cells. The experiment in a line: PC12 cell survival under hypoglycemic, hypoxic or hypoglycemic-hypoxic conditions (MTT). As to conditions: for protective effect on PC12 from cell death under hypoglycemic and hypoxic conditions: 10 ug/ml for each peptide, 24 h; for protective effect against cell death induced by hypoxia / protective effects against cytotoxicity induced by hypoxia or by (hypoglycemia+hypoglycemia): peptide used individually; for protective effects against cytotoxicity induced by hypoxia or by (hypoglycemia+hypoglycemia): conditions as printed.
Procedure: PC12 cells were propagated and cultured as described above. For hypoglycemic condition, 125 μM Cobaltous Chloride (CoCl2, Sigma, USA) was added into the culture media when PC12 cells were in monolayer for further 24 h incubation as described. For induction of hypoglycemia, culture media was changed to glucose-free Eagle's medium when PC12 grew to monolayer for additional 24 h incubation. For hypoglycemic and hypoxic conditions, PC12 cells were cultured in glucose-free Eagle's media with addition of 125 μM CoCl2. After 24 h, cells were harvested and subject to MTT assay.
Data were expressed as mean±standard error (SE) and multiple comparisons were evaluated by the analysis of variance and Neuman-Keuls test. Differences were considered significant at P<0.05. Neurological deficit data were evaluated by the nonparametric Mann-Whitney test.

Data set [2] in a line: In vivo distribution of Cy5.5-conjugated peptides after i.v. injection (IVIS optical imaging). Also noted: species or system C57B/L6 mice. Particulars: for fluorescent intensity detected in the brain: 15 and 30 minutes after injection (FIG. 12); for fluorescent intensity detected in the spinal cord: 30 and 60 minutes after injection (FIG. 13). The source says: The C57B/L6 mice (6˜8 week-old, female) were purchased from National Laboratory Animal Center, Taiwan. For optical imaging, animals were anesthetized by 2% isoflurane gas mixed with oxygen and intravenous injection (i.v.) of Cy5.5-conjugated peptide 1 or Cy5.5-conjugated peptide 5 (35 nmole/per mouse). After administration the mice were placed prone or supine in a dark box and a photographic image was first acquired at low light (exposure time: 5 seconds). At indicated time points after administration of probes, fluorescent signals were obtained using a CCD camera thermoelectrically cooled to −70° C. (Xenogen—IVIS® Spectrum Imaging System, Xenogen Technology). The photon integration period was 1-2 sec.

Data set [3] relates to PC12 cells. The experiment in a line: PC12 cell survival upon exposure to L-glutamic acid (MTT). Format: cell-based, rat. As to conditions: 10 ug/ml for each peptide; 1 mM L-glutamic acid. The method, then:
PC12 cells were obtained from the Chinese Academy of Medical Sciences, Beijing, China. To examine cell survival upon exposure to L-glutamic acid, PC12 cells were grown to confluence in 96 well plate in serum-free RPMI-1640. […] After 15-min incubation, medium was changed to serum-free RPMI-1640. After 24 h incubation, 100 μL MTT (final concentration 0.5 mg/ml) was added for additional 4 h incubation, and the cell survival was subsequently assessed by absorbance at 540 nm under a Fluostar microplate reader (BMG Germany).
(§1) Differences were considered significant at P<0.05.

For data set [4], the system named is PC12 cells. The experiment in a line: PC12 cell survival upon exposure to H2O2 (MTT). Format: cell-based, rat. Particulars: 10 ug/ml for each peptide; 200 μM H2O2, 24 h. On the procedure: To examine cell survival upon exposure to H2O2, PC12 cells were grown to confluence in 96 well plate and the medium was changed to serum-free medium containing 200 μM H2O2 (final volume 100 μl) for 24 h. […] After 24 h incubation, 100 μL MTT (final concentration 0.5 mg/ml) was added for additional 4 h incubation, and the cell survival was subsequently assessed by absorbance at 540 nm under a Fluostar microplate reader (BMG, Germany).
as §1

Data set [5] in a line: Circular dichroism (CD) of the peptide in PBS. As to conditions: 50 μM in PBS. It counts as physicochemical. The method, then: (§2) Peptide-5 was dissolved in series of solution with different pH value and stood for 3 days. Adequate amount of each resulting solution was analyzed by HPLC (Agilent 1100 series) using a Nucleodur Pyramid C18 column (250 mm×4.6 mm, 5 μm) and gradient elution (0 min: 0.1% TFA in H2O; 10 min: 0.1% TFA in MeOH; 15 min: 0.1% TFA in MeOH) with 0.2 mL/min flow. The signals were monitored by UV detector at 220 nm wavelength. The sample collected in the stability test was also analyzed by MALDI-TOF Mass (Bruker Daltonics, Autoflex III) with 2,5-dihydroxybenzoic acid (DHB) as matrix. Furthermore, the portion respond to the signal at 7.8 min were collected and subject to MALDI-MS analysis. Peptide-5 was also prepared 50 μM in PBS and recorded from circular dichroism (Jasco, J-810).

Data set [6] is described as follows: Stability test in solutions of different pH value (HPLC, MALDI-TOF). It counts as physicochemical. Particulars: pH 2.0 to 8.5, 3 days, HPLC UV 220 nm. The method, then:
as §2

Ends that are not written are not given here.

As to DEAQETAVSSH-OH [Peptide 1], in the data set on PC12 cells [1], the “protective effect on PC12 from cell death under hypoglycemic and hypoxic conditions” value was “had the protective effect as well”; the “protective effect against cell death induced by hypoxia” value is recorded as “some protective effect”; the “protective effects against cytotoxicity induced by hypoxia or by (hypoglycemia+hypoglycemia)” value was “no protective effects”. In addition, in data set [2], the “fluorescent intensity detected in the brain” value was “high fluorescent intensity” and the “fluorescent intensity detected in the spinal cord” value is recorded as “high fluorescent intensity”. The “protective effect on L-glutamic-acid-treated PC12 cells” value with PC12 cells [3] is “a degree of protective effect”. Besides, the “protective effect on H2O2-treated neural cells (cell survival)” value with PC12 cells [4] was “a degree of protective effect”.
In the case of DEAQETAVSSHEQD-OH [Peptide 5], in the data set with PC12 cells [1], the “protective effect on PC12 from cell death under hypoglycemic and hypoxic conditions” value is given as “had the protective effect as well”; the “protective effect against cell death induced by hypoxia” value is “some protective effect”; the “protective effects against cytotoxicity induced by hypoxia or by (hypoglycemia+hypoglycemia)” value was “no protective effects”. In data set [2], the “fluorescent intensity detected in the brain” value was “high fluorescent intensity” and the “fluorescent intensity detected in the spinal cord” value is on record as “high fluorescent intensity”. The “stability by CD (circular dichroism)” value in data set [5] is on record as “extremely stable”. Further, in the data set with PC12 cells [3], the “protective effect on L-glutamic-acid-treated PC12 cells” value is “a degree of protective effect”. The “stability in solution with various pH value” in data set [6] is on record as “stable, even in a very acidic environment”. Further, the “protective effect on H2O2-treated neural cells (cell survival)” value with PC12 cells [4] was “a degree of protective effect”.
